According to EP0908457B1, “3-(1,2-benzisothiazol- and isoxazol-5-Y1)-2,4(1H,3H)-pyrimidinedione or thione and 3-(1,2-benzisothiazol- and isoxazol-5-y1)-4(3H)-pyrimidinone or thione herbicidal agents” (BASF AKTIENGESELLSCHAFT, priority 1997, dated 1999):

How the values were obtained:
Cyperus iria = assay: Preemergence weed control under flooded paddy conditions, CYPIR (Rice Flatsedge); assay type: in vivo; settings: flooded paddy; on herbicidal effect rating, CYPIR: meaning of each grade not given here
[1] = system: Echinochloa oryzoides (Ard.) Fritsch.; assay: Preemergence weed control under flooded paddy conditions, ECHORC (Watergrass (Calif.)); assay type: in vivo; settings: flooded paddy; on herbicidal effect rating, ECHORC: meaning of each grade not given here
[2] = system: Cyperus serotinus, Rottb.; assay: Preemergence weed control under flooded paddy conditions, CYPSE (Flatsedge); assay type: in vivo; on herbicidal effect rating, CYPSE: meaning of each grade not given here
Sagittaria pygmaea, L. = assay: Preemergence weed control under flooded paddy conditions, SAGPY (Arrowhead (Pygmaea)); assay type: in vivo; settings: flooded paddy; on herbicidal effect rating, SAGPY: meaning of each grade not given here
[3] = system: Oryza sativa, (L.) Tebonnet; assay: Rice tolerance to post-transplant applications under flooded paddy conditions (Example 187), ORYSAT (Rice, Tebonnet); on herbicidal effect rating ORYSAT: meaning of each grade not given here
[4] = system: Monochoria vaginalis, Presl.; assay: Preemergence weed control under flooded paddy conditions, MOOVA (Monochoria); assay type: in vivo; settings: flooded paddy; on herbicidal effect rating, MOOVA: meaning of each grade not given here
[5] = Rate 0.0320 kg/ha, preemergence, rated 3-4 weeks after treatment
[6] = Rate 0.0620 kg/ha, preemergence, rated 3-4 weeks after treatment
[7] = Rate 0.1250 kg/ha, preemergence, rated 3-4 weeks after treatment
[8] = Rate 0.2500 kg/ha, preemergence, rated 3-4 weeks after treatment
[9] = Rate 0.5000 kg/ha, preemergence, rated 3-4 weeks after treatment
[10] = Rate 0.0320 kg/ha, rated 3-4 weeks after treatment
[11] = Rate 0.0620 kg/ha, rated 3-4 weeks after treatment
[12] = Rate 0.1250 kg/ha, rated 3-4 weeks after treatment
[13] = Rate 0.2500 kg/ha, rated 3-4 weeks after treatment
[14] = 0.0313 kg/ha, preemergence weeds, rated three to four weeks after treatment
[15] = 0.0625 kg/ha, preemergence weeds, rated three to four weeks after treatment
[16] = 0.1250 kg/ha, preemergence weeds, rated three to four weeks after treatment
[17] = 0.2500 kg/ha, preemergence weeds, rated three to four weeks after treatment
[18] = 0.1250 kg/ha, rated three to four weeks after treatment
[19] = 0.2500 kg/ha, rated three to four weeks after treatment
[20] = Rate 0.0320 kg/ha, preemergence weeds, rated three to four weeks after treatment
[21] = Rate 0.0620 kg/ha, preemergence weeds, rated three to four weeks after treatment
[22] = Rate 0.1250 kg/ha, preemergence weeds, rated three to four weeks after treatment
[23] = Rate 0.2500 kg/ha, preemergence weeds, rated three to four weeks after treatment
[24] = Rate 0.0320 kg/ha, rated three to four weeks after treatment
[25] = Rate 0.0620 kg/ha, rated three to four weeks after treatment
[26] = Rate 0.1250 kg/ha, rated three to four weeks after treatment
[27] = Rate 0.2500 kg/ha, rated three to four weeks after treatment
[28] = 0.0320 kg/ha, preemergence, rated three to four weeks after treatment
[29] = 0.0620 kg/ha, preemergence, rated three to four weeks after treatment
[30] = 0.1250 kg/ha, preemergence, rated three to four weeks after treatment
[31] = 0.2500 kg/ha, preemergence, rated three to four weeks after treatment

CNC(=O)COc1ccccc1-c1nsc2ccc(-n3c(=O)cc(C(F)(F)F)n(C)c3=O)cc12 [Example 562, Acetamide, 2-{o-{5-[3,6-dihydro-3-methyl-2,6-dioxo-4-(trifluoromethyl)-1(2H)-pyrimidinyl]-1,2-benzisothiazol-3-yl}phenoxy}-N-methyl-]
herbicidal effect rating, CYPIR (Cyperus iria; [5]): 2.0 | herbicidal effect rating, CYPIR (Cyperus iria; [6]): 7.0 | herbicidal effect rating, CYPIR (Cyperus iria; [7]): 9.0 | herbicidal effect rating, CYPIR (Cyperus iria; [8]): 9.0 | herbicidal effect rating, CYPIR (Cyperus iria; [9]): 3.0 | herbicidal effect rating, ECHORC [1, 5]: 2.7 | herbicidal effect rating, ECHORC [1, 6]: 5.1 | herbicidal effect rating, ECHORC [1, 7]: 5.1 | herbicidal effect rating, ECHORC [1, 8]: 9.0 | herbicidal effect rating, ECHORC [1, 9]: 9.0 | herbicidal effect rating, CYPSE [2, 6]: 4.0 | herbicidal effect rating, CYPSE [2, 7]: 9.0 | herbicidal effect rating, CYPSE [2, 8]: 9.0 | herbicidal effect rating, CYPSE [2, 9]: 9.0 | herbicidal effect rating, SAGPY (Sagittaria pygmaea, L.; [5]): 0.0 | herbicidal effect rating, SAGPY (Sagittaria pygmaea, L.; [6]): 0.0 | herbicidal effect rating, SAGPY (Sagittaria pygmaea, L.; [7]): 5.0 | herbicidal effect rating, SAGPY (Sagittaria pygmaea, L.; [8]): 7.0 | herbicidal effect rating, SAGPY (Sagittaria pygmaea, L.; [9]): 0.0 | herbicidal effect rating ORYSAT [3, 10]: 2.0 | herbicidal effect rating ORYSAT [3, 11]: 3.0 | herbicidal effect rating ORYSAT [3, 12]: 4.0 | herbicidal effect rating ORYSAT [3, 13]: 9.0 | herbicidal effect rating ORYSAT ([3]; Rate 0.5000 kg/ha, rated 3-4 weeks after treatment): 6.0 | herbicidal effect rating, MOOVA [4, 5]: 9.0 | herbicidal effect rating, MOOVA [4, 6]: 9.0 | herbicidal effect rating, MOOVA [4, 7]: 9.0 | herbicidal effect rating, MOOVA [4, 8]: 9.0 | herbicidal effect rating, MOOVA [4, 9]: 9.0

Cn1c(C(F)(F)F)cc(=O)n(-c2ccc3snc(C(Cl)Cl)c3c2)c1=O [Example 114, 3-[3-(Dichloromethyl)-1,2-benzisothiazol-5-yl]-1-methyl-6-(trifluoromethyl)-2,4(1H,3H)-pyrimidinedione]
herbicidal effect rating, CYPIR (Cyperus iria; [14]): 9.0 | herbicidal effect rating, CYPIR (Cyperus iria; [15]): 9.0 | herbicidal effect rating, CYPIR (Cyperus iria; [16]): 9.0 | herbicidal effect rating, CYPIR (Cyperus iria; [17]): 9.0 | herbicidal effect rating, ECHORC [1, 14]: 0.0 | herbicidal effect rating, ECHORC [1, 15]: 0.0 | herbicidal effect rating, ECHORC [1, 16]: 4.0 | herbicidal effect rating, ECHORC [1, 17]: 6.0 | herbicidal effect rating, CYPSE [2, 14]: 0.0 | herbicidal effect rating, CYPSE [2, 15]: 0.0 | herbicidal effect rating, CYPSE [2, 16]: 2.0 | herbicidal effect rating, CYPSE [2, 17]: 6.0 | herbicidal effect rating, SAGPY (Sagittaria pygmaea, L.; [14]): 0.0 | herbicidal effect rating, SAGPY (Sagittaria pygmaea, L.; [15]): 2.0 | herbicidal effect rating, SAGPY (Sagittaria pygmaea, L.; [16]): 6.0 | herbicidal effect rating, SAGPY (Sagittaria pygmaea, L.; [17]): 6.0 | herbicidal effect rating, ORYSAT (rice tolerance) ([3]; 0.0313 kg/ha, rated three to four weeks after treatment): 4.0 | herbicidal effect rating, ORYSAT (rice tolerance) ([3]; 0.0625 kg/ha, rated three to four weeks after treatment): 6.0 | herbicidal effect rating, ORYSAT (rice tolerance) [3, 18]: 7.0 | herbicidal effect rating, ORYSAT (rice tolerance) [3, 19]: 7.0 | herbicidal effect rating, MOOVA [4, 14]: 9.0 | herbicidal effect rating, MOOVA [4, 15]: 9.0 | herbicidal effect rating, MOOVA [4, 16]: 9.0 | herbicidal effect rating, MOOVA [4, 17]: 8.0

CCCCCCCCCOC(=O)COc1ccc(C)cc1-c1nsc2ccc(-n3c(=O)cc(C(F)(F)F)n(C)c3=O)cc12 [Example 519, Acetic acid, {{2-{5-[3,6-dihydro-3-methyl-2,6-dioxo-4-(trifluoromethyl)-1(2H)-pyrimidinyl]-1,2-benzisothiazol-3-yl}-p-tolyl}oxy}-, nonyl ester]
herbicidal effect rating, CYPIR (Cyperus iria; [5]): 0.0 | herbicidal effect rating, CYPIR (Cyperus iria; [6]): 0.0 | herbicidal effect rating, CYPIR (Cyperus iria; [7]): 2.0 | herbicidal effect rating, CYPIR (Cyperus iria; [8]): 6.0 | herbicidal effect rating, ECHORC [1, 5]: 2.0 | herbicidal effect rating, ECHORC [1, 6]: 4.0 | herbicidal effect rating, ECHORC [1, 7]: 6.5 | herbicidal effect rating, ECHORC [1, 8]: 9.0 | herbicidal effect rating, CYPSE [2, 5]: 0.0 | herbicidal effect rating, CYPSE [2, 6]: 0.0 | herbicidal effect rating, CYPSE [2, 7]: 0.0 | herbicidal effect rating, CYPSE [2, 8]: 0.0 | herbicidal effect rating, SAGPY (Sagittaria pygmaea, L.; [5]): 0.0 | herbicidal effect rating, SAGPY (Sagittaria pygmaea, L.; [6]): 0.0 | herbicidal effect rating, SAGPY (Sagittaria pygmaea, L.; [7]): 0.0 | herbicidal effect rating, SAGPY (Sagittaria pygmaea, L.; [8]): 0.0 | herbicidal effect rating ORYSAT [3, 10]: 2.0 | herbicidal effect rating ORYSAT [3, 11]: 4.0 | herbicidal effect rating ORYSAT [3, 12]: 4.5 | herbicidal effect rating ORYSAT [3, 13]: 4.0 | herbicidal effect rating, MOOVA [4, 5]: 9.0 | herbicidal effect rating, MOOVA [4, 6]: 9.0 | herbicidal effect rating, MOOVA [4, 7]: 9.0 | herbicidal effect rating, MOOVA [4, 8]: 9.0

C[C@@H](Br)[C@H](Br)c1nsc2ccc(-n3c(=O)cc(C(F)(F)F)n(C)c3=O)cc12 [Example 303, 2,4(1H,3H)-Pyrimidinedione, 3-[3-(1,2-dibromopropyl)-1,2-benzisothiazol-5-yl]-1-methyl-6-(trifluoromethyl)-, (1R,2R)-]
herbicidal effect rating, CYPIR (Cyperus iria; [20]): 8.0 | herbicidal effect rating, CYPIR (Cyperus iria; [21]): 8.0 | herbicidal effect rating, CYPIR (Cyperus iria; [22]): 8.5 | herbicidal effect rating, CYPIR (Cyperus iria; [23]): 8.5 | herbicidal effect rating, ECHORC [1, 20]: 2.5 | herbicidal effect rating, ECHORC [1, 21]: 7.5 | herbicidal effect rating, ECHORC [1, 22]: 9.0 | herbicidal effect rating, ECHORC [1, 23]: 9.0 | herbicidal effect rating, CYPSE [2, 20]: 0.0 | herbicidal effect rating, CYPSE [2, 21]: 4.0 | herbicidal effect rating, CYPSE [2, 22]: 5.0 | herbicidal effect rating, CYPSE [2, 23]: 6.0 | herbicidal effect rating, SAGPY (Sagittaria pygmaea, L.; [20]): 2.0 | herbicidal effect rating, SAGPY (Sagittaria pygmaea, L.; [21]): 2.0 | herbicidal effect rating, SAGPY (Sagittaria pygmaea, L.; [22]): 8.5 | herbicidal effect rating, SAGPY (Sagittaria pygmaea, L.; [23]): 9.0 | herbicidal effect rating ORYSAT [3, 24]: 2.0 | herbicidal effect rating ORYSAT [3, 25]: 4.5 | herbicidal effect rating ORYSAT [3, 26]: 5.0 | herbicidal effect rating ORYSAT [3, 27]: 7.5 | herbicidal effect rating, MOOVA [4, 20]: 7.0 | herbicidal effect rating, MOOVA [4, 21]: 9.0 | herbicidal effect rating, MOOVA [4, 22]: 9.0 | herbicidal effect rating, MOOVA [4, 23]: 9.0

Cn1c(C(F)(F)F)cc(=O)n(-c2ccc3snc(C(=O)NS(=O)(=O)CCl)c3c2)c1=O [Example 324, 1,2-Benzisothiazole-3-carboxamide, N-[(chloromethyl)sulfonyl]-5-[3,6-dihydro-3-methyl-2,6-dioxo-4-(trifluoromethyl)-1(2H)-pyrimidinyl]-]
herbicidal effect rating, CYPIR (Cyperus iria; [20]): 9.0 | herbicidal effect rating, CYPIR (Cyperus iria; [21]): 9.0 | herbicidal effect rating, CYPIR (Cyperus iria; [22]): 9.0 | herbicidal effect rating, CYPIR (Cyperus iria; [23]): 9.0 | herbicidal effect rating, ECHORC [1, 20]: 0.0 | herbicidal effect rating, ECHORC [1, 21]: 4.0 | herbicidal effect rating, ECHORC [1, 22]: 5.0 | herbicidal effect rating, ECHORC [1, 23]: 6.0 | herbicidal effect rating, CYPSE [2, 20]: 0.0 | herbicidal effect rating, CYPSE [2, 21]: 0.0 | herbicidal effect rating, CYPSE [2, 22]: 3.0 | herbicidal effect rating, CYPSE [2, 23]: 7.0 | herbicidal effect rating, SAGPY (Sagittaria pygmaea, L.; [20]): 0.0 | herbicidal effect rating, SAGPY (Sagittaria pygmaea, L.; [21]): 3.0 | herbicidal effect rating, SAGPY (Sagittaria pygmaea, L.; [22]): 9.0 | herbicidal effect rating, SAGPY (Sagittaria pygmaea, L.; [23]): 9.0 | herbicidal effect rating ORYSAT [3, 24]: 3.0 | herbicidal effect rating ORYSAT [3, 25]: 4.0 | herbicidal effect rating ORYSAT [3, 26]: 7.0 | herbicidal effect rating ORYSAT [3, 27]: 9.0 | herbicidal effect rating, MOOVA [4, 20]: 9.0 | herbicidal effect rating, MOOVA [4, 21]: 9.0 | herbicidal effect rating, MOOVA [4, 22]: 9.0 | herbicidal effect rating, MOOVA [4, 23]: 9.0

COCOCc1nsc2ccc(-n3c(=O)cc(C(F)(F)F)n(C)c3=O)cc12 [Example 478, 2,4(1H,3H)-Pyrimidinedione, 3-{3-[(methoxymethoxy)methyl]-1,2-benzisothiazol-5-yl}-1-methyl-6-(trifluoromethyl)-]
CYPIR herbicidal rating (Cyperus iria; [28]): 4.0 | CYPIR herbicidal rating (Cyperus iria; [29]): 9.0 | CYPIR herbicidal rating (Cyperus iria; [30]): 9.0 | CYPIR herbicidal rating (Cyperus iria; [31]): 9.0 | ECHORC herbicidal rating [1, 28]: 4.0 | ECHORC herbicidal rating [1, 29]: 6.0 | ECHORC herbicidal rating [1, 30]: 7.0 | ECHORC herbicidal rating [1, 31]: 9.0 | CYPSE herbicidal rating [2, 28]: 6.0 | CYPSE herbicidal rating [2, 29]: 7.0 | CYPSE herbicidal rating [2, 30]: 9.0 | CYPSE herbicidal rating [2, 31]: 9.0 | SAGPY herbicidal rating (Sagittaria pygmaea, L.; [28]): 6.0 | SAGPY herbicidal rating (Sagittaria pygmaea, L.; [29]): 6.0 | SAGPY herbicidal rating (Sagittaria pygmaea, L.; [30]): 9.0 | SAGPY herbicidal rating (Sagittaria pygmaea, L.; [31]): 9.0 | ORYSAT herbicidal rating (rice tolerance) ([3]; 0.0320 kg/ha, rated three to four weeks after treatment): 7.0 | ORYSAT herbicidal rating (rice tolerance) ([3]; 0.0620 kg/ha, rated three to four weeks after treatment): 9.0 | ORYSAT herbicidal rating (rice tolerance) [3, 18]: 9.0 | ORYSAT herbicidal rating (rice tolerance) [3, 19]: 9.0 | MOOVA herbicidal rating [4, 28]: 7.0 | MOOVA herbicidal rating [4, 29]: 9.0 | MOOVA herbicidal rating [4, 30]: 9.0 | MOOVA herbicidal rating [4, 31]: 9.0
